Assay results reported in US20250154112A1, “A PREPARATION OF QUINAZOLINEDIONES AND USE THEREOF” (COUNCIL OF SCIENTIFIC AND INDUSTRIAL RESEARCH AN INDIAN …, priority 2021, published 2025).

How the values were obtained:
COP1 = target: T1, COP1 (Homo sapiens, UniProt Q8NHY2); assay: Western blot of COP1 level in HepG2 cells after compound treatment; assay type: cell-based; settings: 5 μM, 24 hours
T1 construct: endogenous in cells; host or cells: HepG2
Method: (§1) HepG2 cells were treated with the compounds 5, 8, 11, 59, 62, 65, 91, 94 at 5 μM for 24 hours. After removing media from the cells, the wells were washed with 1×PBS twice to remove any remnant media. Cells were then lysed in lysis buffer containing 50 mM Tris-HCl (pH 7.4), 100 mM NaCl, 1 mM EDTA, 1 mM EGTA, 1% Triton X-100 and protease inhibitor cocktail 1 (Millipore, Billierica, MA, USA). Following centrifugation at 20,000 g for 20 minutes, the protein solution was extracted from the cells. Protein was estimated using Bradford assay. Bradford's reagent (BioRad) was diluted in 1:4 ratio in double distilled water. 2 μl of protein sample was added to 100 μl of the reagent and absorbance was measured at 595 nm. 30 μg of protein was diluted in lysis buffer. 1X loading buffer diluted from 5X stock containing 250 mM Tris-HCl (pH 6.8), 10% SDS, 50% glycerol, 0.1% bromophenol Blue and 10% β-mercaptoethanol was added. The protein samples were then heated at 95° C. for 10 minutes, cooled and centrifuged at 12,000 g for 2 minutes prior to loading.
(§2) For western blotting, the proteins were resolved in 10% SDS PAGE (discontinuous buffer system). 1X running buffer containing SDS, Tris Base and Glycine was used to run the gel at 80V for approximately 2 hours. Transfer was done using PVDF membrane (Millipore) having pore size of 0.45 μm. 1X transfer buffer containing Tris-Base, Glycine and 20% methanol was used for wet transfer. Transfer was done at 90V for 3 hours. Following transfer, the PVDF membrane containing the proteins were washed in 1×PBST comprising of 1×PBS and 1% Tween 20 (Sigma Aldrich). The membrane was then incubated for 1 hour at room temperature in 5% skim milk powder to block the non-specific sites. Following multiple washes with 1×PBST to wash away any remaining blocking buffer, the required primary antibody (COP1 [BethylLaboraties], ATGL [Cell Signalling Technology] or Actin[Cell Signalling Technology]) prepared with 1×PBST, 1% Bovine Serum Albumin and 0.04% Sodium Azide was added to the membrane and incubated overnight at 4° C. The next day, the membrane was again washed multiple times with 1×PBST to remove any unbound primary antibody. The membrane was then incubated with goat anti-rabbit secondary antibody (Genei) for 1 hour at room temperature and washed again for multiple times with 1×PBST. The membrane was then developed using Clarity™ ECL Western Blotting Substrate (BioRad) and viewed in ChemiDoc (BioRad).

Plasma stability assay = assay type: in vitro ADME; settings: 1 μM, 37° C.
Method: 1 mM Stock of test compound was prepared from 10 mM initial stock solution of compounds by diluting 10 μL of 10 mM stock with 90 μL of DMSO. Then 10 μL of 1 mM stock was diluted with 90 μL of DMSO to give 100 μM concentration. The frozen plasma was thawed at room temperature and centrifuged at 1400 rpm at 4° C., for 15 minutes. Approximately 90% of the clear supernatant fraction was transferred to a separate tube and was used for the assay. Final working stock of 1 μM was prepared by diluting 3 μL of 100 μM with 297 μL of plasma. Plasma containing the test compound was incubated for 120 min at 37° C. in shaker with 500 rpm. 50 μL of aliquot of sample at 0, 15, 30, 60 and 120 minutes were precipitated with 150 μL of acetonitrile containing internal standard and centrifuged at 4000 rpm at 4° C. for 20 minutes. 120 μL of supernatant was diluted with 120 μL of water and analysed by LC-MS/MS.

[1] = Metabolic stability using human liver microsomes (HLM); assay type: in vitro ADME
Method: 1 mM stock solution of test compound was prepared in DMSO and diluted with Acetonitrile:Water (1:1) to get a 100 μM working concentration. 100 mL of Milli Q water was added to K2HPO4 (1.398 g) and KH2PO4 (0.27 g) to get final pH 7.4 solution of potassium phosphate buffer. […] The above mixture was pre incubated for 15 minutes at 37° C. After pre incubation, 32.5 μL of the mixture was added to 17.5 μL of buffer, this was incubated for 60 minutes at 37° C. [60 min Without Cofactor (NADPH)]. 16.25 μL of the pre incubated mixture and 8.75 μL of cofactor was added to 150 μL of acetonitrile containing internal standard [0 min Sample]. 62 μL of cofactor was added to remaining pre incubation mixture [Incubation mixture]. 25 μL of incubation mixture at 0, 5, 15, 30, 60 min and 60 min without cofactor were precipitated with 150 μL of acetonitrile containing internal standard, vortexed and centrifuged at 4000 rpm at 4° C. for 20 minutes. 120 μL of supernatant was diluted with 120 μL of water and analyzed by LC-MS/MS [sample preparation].

ATGL = assay: Western blot of ATGL level in HepG2 cells after compound treatment; assay type: cell-based; settings: 24 hours; for ATGL level (Western Blot): 50 nM to 5 μM dose dependent, with respect to control; for induction of ATGL (Western Blot): 5 μM
Method: as §1, with “62,” for “62, 65,”, “94 (50 nM, 100 nM, 200 nM, 500 nM, 1 μM and” for “94 at”, “μM for dose dependent assays)” for “μM”, “cocktail” for “cocktail 1”
as §2, §1

[2] = system: ubiquitination of ATGL by COP1; assay: Immunoprecipitation assay of ATGL ubiquitination status in HepG2 cells; assay type: cell-based; settings: HepG2 cells overexpressing myc-ATGL, HA-Ubiquitin, 5 μM, MG-132, compared with control
Method: To this end, an immunoprecipitation assay was performed wherein HepG2 cells overexpressing myc-ATGL were transfected with HA-Ubiquitin and treated with 5 μM of the compounds 5, 62, and 94.MG-132, a proteasomal inhibitor, was added4 hours before harvesting the cells. Immune complexes were pulled down with anti-myc antibody and immunoblot was done using anti-HA antibody. The resultant smears on the blot reflect the ubiquitination status of ATGL.

T1 sequence (Q8NHY2 whole entry): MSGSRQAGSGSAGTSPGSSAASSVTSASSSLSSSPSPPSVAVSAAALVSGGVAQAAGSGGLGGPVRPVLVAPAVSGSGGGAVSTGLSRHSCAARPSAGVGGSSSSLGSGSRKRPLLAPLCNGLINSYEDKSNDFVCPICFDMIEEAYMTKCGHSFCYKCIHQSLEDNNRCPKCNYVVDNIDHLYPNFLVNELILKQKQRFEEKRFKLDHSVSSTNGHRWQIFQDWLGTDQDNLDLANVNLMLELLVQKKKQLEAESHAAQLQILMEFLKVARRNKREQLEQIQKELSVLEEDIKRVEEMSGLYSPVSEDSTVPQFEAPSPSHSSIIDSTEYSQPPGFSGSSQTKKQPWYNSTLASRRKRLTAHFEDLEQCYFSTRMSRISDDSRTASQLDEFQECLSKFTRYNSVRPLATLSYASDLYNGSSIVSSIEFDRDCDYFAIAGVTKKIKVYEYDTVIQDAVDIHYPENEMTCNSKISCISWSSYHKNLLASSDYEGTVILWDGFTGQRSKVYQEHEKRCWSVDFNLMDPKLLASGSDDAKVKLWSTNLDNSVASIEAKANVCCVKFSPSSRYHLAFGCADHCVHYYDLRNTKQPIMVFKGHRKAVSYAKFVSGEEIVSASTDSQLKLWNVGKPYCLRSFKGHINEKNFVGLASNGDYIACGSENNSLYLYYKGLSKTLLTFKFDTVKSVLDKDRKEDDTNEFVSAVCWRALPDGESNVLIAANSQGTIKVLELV

COCCn1c(=O)c2cc(NC(=O)Nc3cccc(C(C)=O)c3)ccc2n(CCCN2CCOCC2)c1=O [Compound 94, 1-(3-acetylphenyl)-3-(3-(2-methoxyethyl)-1-(3-morpholinopropyl)-2,4-dioxo-1,2,3,4-tetrahydroquinazolin-6-yl)urea]
stabilization of COP1 (Western Blot) (COP1): stabilize the COP1
Mean % remaining at 2 hrs in human Plasma (Plasma stability assay): 51.74%
% QH (Well stirred model) [1]: 59.60%
ATGL level (Western Blot) (ATGL): increased ATGL level
induction of ATGL (Western Blot) (ATGL): ability to induce ATGL
ubiquitination status of ATGL (poly-Ubiquitin smear) [2]: no such effect

COCCn1c(=O)[nH]c2ccc(NC(=O)Nc3cccc(C(C)=O)c3)cc2c1=O [Compound 5, 1-(3-acetylphenyl)-3-(3-(2-methoxyethyl)-2,4-dioxo-1,2,3,4-tetrahydroquinazolin-6-yl)urea]
stabilization of COP1 (Western Blot) (COP1): stabilize the COP1
Mean % remaining at 2 hrs in human Plasma (Plasma stability assay): 97.40%
% QH (Well stirred model) [1]: 7.60%
ATGL level (Western Blot) (ATGL): increased ATGL level
induction of ATGL (Western Blot) (ATGL): ability to induce ATGL
ubiquitination status of ATGL (poly-Ubiquitin smear) [2]: stark reduction in the ubiquitination smear

COCCn1c(=O)c2cc(NC(=O)Nc3cccc(C(C)=O)c3)ccc2n(CCN2CCCCC2)c1=O [Compound 62, 1-(3-acetylphenyl)-3-(3-(2-methoxyethyl)-2,4-dioxo-1-(2-(piperidin-1-yl)ethyl)-1,2,3,4-tetrahydroquinazolin-6-yl)urea]
stabilization of COP1 (Western Blot) (COP1): stabilize the COP1
Mean % remaining at 2 hrs in human Plasma (Plasma stability assay): 26.18%
% QH (Well stirred model) [1]: 56.74%
ATGL level (Western Blot) (ATGL): increased ATGL level
induction of ATGL (Western Blot) (ATGL): ability to induce ATGL
ubiquitination status of ATGL (poly-Ubiquitin smear) [2]: stark reduction in the ubiquitination smear
